{"source": "patent US7250505B1", "about": "“Isolation and expression of a disabled protein gene mDab1 and methods” (Fred Hutchinson Cancer Research Center, priority 1997, dated 2007)", "key": {"mDab1 PTB [1]": {"biological_target": "T1, mDab1 PTB (Mus musculus, UniProt P97318)", "T1 construct": "the region corresponding to the mDab1 PTB, residues 29 to 197; made in house; host or cells: Escherichia coli strain TG-1", "T1 sequence (P97318 29-197)": "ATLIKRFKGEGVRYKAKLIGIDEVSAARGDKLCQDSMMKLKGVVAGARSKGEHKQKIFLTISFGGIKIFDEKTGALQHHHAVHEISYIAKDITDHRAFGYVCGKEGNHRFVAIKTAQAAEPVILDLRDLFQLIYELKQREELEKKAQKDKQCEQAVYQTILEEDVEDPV", "assay": "Competition of GST-mDab1 PTB binding to LUVs containing PtdIns4,5P2 by inositol phosphates", "method": "GST fusion proteins containing the Shc or mDab1 PTB domain were compared for their ability to bind LUVs that contained phosphotidylisositol 4,5 P2 (PtdIns4,5P2), phosphatidylserine (PtdSer) and phosphatidylethanolamine (PtdEth). Methods for the production of LUVs and assays for binding to Shc phosphotyrosine-binding domains can found in Ravichandran, et al., Mol. Cell. Biol. 17:5540-5549 (1997) which is incorporated herein by reference. After the fusion proteins and a GST control were incubated with the LUVs the reactions were centrifuged and the presence of the fusion proteins were detected by SDS PAGE and Western blotting with antibodies to GST as described above. GST-Shc PTB and GST-mDab1 PTB fusion proteins were found in the high speed pellet fraction in the presence of but not in the absence of LUVs. While the GST fusion protein control was found in the high speed supernatant in the presence of absence of the LUVs.\nThe specificity of mDab1 PTB binding to phospholipids was also determined. For these studies LUVs were prepared containing equal quantities of PtdSer, phosphatidylcholine (PtdCho) and Ptd Eth, and 0 or 5% by weight of PtdIns4P, PtdIns4,5P2, or PdtIns3,4,5P3. This corresponded to approximately 7.5 μM phosphoinositide in the outer leaflet of the lipid bilayer. Detection of binding to the LUVs was determined as described above.\nmDab1 PTB binding to LUVs containing phosphoinositides in the presence of various phosphorylated isomers of inositol was also examined to determine whether the binding of mDab1 PTB to phosphoinositides was specific or was the result of a strong affinity for strongly anionic phospholipids. […] Binding was competed with D-Ins1,4,5P3, but not by L-Ins1, 4,5P3."}, "mDab1 PTB [2]": {"biological_target": "T1, mDab1 PTB", "assay": "GST-mDab1 PTB binding of tyrosine phosphorylated proteins from E13 mouse head lysates in the presence of phosphoamino acid competitors", "conditions": "competitor in binding buffer (50 mM)", "method": "Lysates from 293T cells transfected with retroviral vectors encoding mDab555 alone; Src 527F alone; Src527F and mDab555 together; or Src527F and mDab1 98/200F, which is described in more detail below, were either bound to immobilized GST fusions proteins or were immunoprecipitated with anti-mDab1 or preimmune antibodies. Binding assays and analysis were carried out essentially as described for immunoprecipitations with 5 μg of GST fusion protein immobilized on glutathione agarose beads. Phenyl phosphate and phosphoserine were used at 50 mM for competition experiments. After washing, mDab1 bound to the immobilized SH2 domains was detected by immunoblotting. […] The Abl and Csk SH2 domains do form high affinity complexes with other tyrosine phosphorylated molecules however (Sabe et al., Proc. Natl. Acad. Sci. USA 91:3984-3988 (1994); Duyster et al., ibid. (1995)).\nTo examine whether the mDab1 PTB binds proteins that are tyrosine phosphorylated during neural development, a GST fusion protein containing the mDab1 PTB, a mutant mDab1 PTB in which Arg 56 was changed to Glu (mDab1 56E) or GST alone. was incubated with lysates from E13 mouse heads. Bound proteins were eluted, resolved and immunoblotted with anti-phosphotyrosine antibodies. The mDab1 PTB bound tyrosine phosphorylated proteins of 200, 120, 50-65 and 40 kDa.\nTo test whether the binding of proteins to the mDab1 PTB is phosphotyrosine dependent, binding experiments were done in the presence of the phosphotyrosine analog phenylphosphate. The assays was conducted as described above and phenylphosphate or phosphoserine were included in the binding buffer to investigate binding specificity. Proteins were eluted and analyzed as described above. […] However the binding of the 50-65 kDa proteins was not affected by either competitor."}, "mDab1 PTB domain": {"biological_target": "T2, mDab1 PTB domain (Mus musculus, UniProt P97318)", "T2 construct": "the region corresponding to the mDab1 PTB, residues 29 to 197; made in house; host or cells: Escherichia coli strain TG-1", "T2 sequence (P97318 29-197)": "T1 sequence (P97318 29-197)", "assay": "Binding of radioactively labeled GST-mDab1 PTB domain fusion protein to synthetic peptides in a grid array on cellulose", "conditions": "15 to 17 residue peptides with NPXY motifs on cellulose sheet", "method": "The ability of the mDab1 PTB domain to interact directly with synthetic peptides based on the sequences identified in the two-hybrid screen was tested to identify the optimal sequence for mDab1 PTB domain binding. […] The purified, radioactive fusion protein was then incubated with a sheet of cellulose paper onto which different 15 to 17 residue synthetic peptides had been synthesized in a grid array (Niebuhr, et al., EMBO J. 16:5433-5444 (1997), incorporated herein by reference). Each sheet contained up to 100 different peptide sequences. After incubation, the sheet was washed and exposed to film, and bound PTB domain fusion protein was quantified. […] The mDab1 PTB domain was tested against peptides containing NPXY motifs from APP, the APP relatives APLP1 and APLP2, LRP, the LRP-related LDL receptor, Ship, and known ligands for the Shc and IRS-1 PTB domains, namely the EGF receptor, HER3 receptor, NGF receptor (TrkA), and insulin receptor. The mDab1 PTB domain was also tested against peptide motifs with phosphotyrosine in place of the tyrosine of the NPXY sequence (i.e. NPXpY peptides). The amount of radioactivity associated with each peptide was quantified with a PhosphorImager (Molecular Dynamics), and depicted as a percentage of that which associated with the APP peptide.\nTo determine which residues in the APP sequence are involved in the interaction with the mDab1 PTB, an array of peptides based on the APP sequence with alanine substituted at each position in turn were synthesized. The ability of each peptide to bind to the PTB domain was compared to wild-type. […] Only the side chains of residues on the amino-terminal side of the NPXY motif appear to influence the strength of the interaction.\nTo determine the features of the APP peptide that were recognized by the mDab1 PTB domain, all nineteen amino acids, except cysteine, were substituted at several positions. In all cases the mDab1 PTB domain bound better to the wild-type APP sequence than to any altered sequence. Most substitutions of residues Gly-6, Tyr-5, Asn-3, Pro-2 and Tyr-0 inhibited PTB domain binding by greater than 80%. […] For example, the significant binding of the p150 Ship, LRP, and LDL receptor peptides implies that replacement of Tyr-5 with phenylalanine is permitted provided other changes are also made."}}, "note": "No end group written: not given here."}
{"compound": "O=P(O)(O)O[C@@H]1[C@H](O)[C@H](O)[C@@H](OP(=O)(O)O)[C@H](OP(=O)(O)O)[C@H]1O", "note": "[D-Ins1,4,5P3]", "values": [{"measurement": "competition of GST-mDab1 PTB binding to LUVs containing PtdIns4,5P2", "setting": "mDab1 PTB [1]; competitor at 30 μM", "value": "weak competition"}, {"measurement": "competition of GST-mDab1 PTB binding to LUVs containing PtdIns4,5P2", "setting": "mDab1 PTB [1]; competitor at 100 μM", "value": "competed"}]}
{"compound": "O=P(O)(O)O[C@@H]1[C@@H](O)[C@H](OP(=O)(O)O)[C@@H](OP(=O)(O)O)[C@H](O)[C@@H]1O", "note": "[L-Ins1, 4,5P3]", "values": [{"measurement": "competition of GST-mDab1 PTB binding to LUVs containing PtdIns4,5P2", "setting": "mDab1 PTB [1]; competitor at 100 μM", "value": "not"}]}
{"compound": "O=P(O)(O)Oc1ccccc1", "note": "[phenylphosphate]", "values": [{"measurement": "binding of the 50-65 kDa proteins to mDab1 PTB in presence of competitor", "setting": "mDab1 PTB [2]", "value": "not affected"}, {"measurement": "binding of the 120 and 40 kDa phosphotyrosyl proteins to mDab1 PTB in presence of competitor", "setting": "mDab1 PTB [2]", "value": "reduced significantly"}]}
{"compound": "N[C@@H](COP(=O)(O)O)C(=O)O", "note": "[phosphoserine]", "values": [{"measurement": "binding of the 50-65 kDa proteins to mDab1 PTB in presence of competitor", "setting": "mDab1 PTB [2]", "value": "not affected"}, {"measurement": "binding of the 120 and 40 kDa phosphotyrosyl proteins to mDab1 PTB in presence of competitor", "setting": "mDab1 PTB [2]", "value": "to a less extent"}]}
{"compound": "IIENPQY [SEQ ID NO:33]", "values": [{"measurement": "binding of mDab1 PTB domain to peptide", "setting": "mDab1 PTB domain", "value": "failed to interact"}]}
{"compound": "MFENPLY [SEQ ID NO:30]", "values": [{"measurement": "binding of mDab1 PTB domain to peptide", "setting": "mDab1 PTB domain", "value": "better than the other"}]}
{"compound": "NFDNPVY [SEQ ID NO:29]", "values": [{"measurement": "binding of mDab1 PTB domain to peptide", "setting": "mDab1 PTB domain", "value": "bound"}]}
{"compound": "NFTNPVY [SEQ ID NO:28, peptide with the more carboxy-terminal NPXY motif of LRP]", "values": [{"measurement": "binding of mDab1 PTB domain to peptide", "setting": "mDab1 PTB domain", "value": "bound"}]}
{"compound": "NSSNPEY [SEQ ID NO:34]", "values": [{"measurement": "binding of mDab1 PTB domain to peptide", "setting": "mDab1 PTB domain", "value": "failed to interact"}]}
{"compound": "NVGNPEY [SEQ ID NO:32]", "values": [{"measurement": "binding of mDab1 PTB domain to peptide", "setting": "mDab1 PTB domain", "value": "failed to interact"}]}
